ChEMBL document CHEMBL3600367, “Anti-plasmodial activity of bradykinin and analogs” (Bioorg Med Chem Lett, 2015)
Active and inactive are the calls of the source. No cut-off for these calls is given here. Residues, ends and D or L forms follow the SMILES beside them.

Tests used:
[1] = Metabolic stability in plasma (unknown origin); assay type: ADME, cell-free
Plasmodium falciparum = assay: Antiplasmodial activity against Plasmodium falciparum W2 schizonts infected in human erythrocytes assessed as appearance of intracellular ring forms at 10^-8 mol/L after 24 hrs by Diff quick staining-based light microscopic analysis; assay type: functional, organism-based
Plasmodium gallinaceum = assay: Antiplasmodial activity against mature Plasmodium gallinaceum sporozoites isolated from Aedes aegypti RED assessed as increase in membrane permeability at 60 umol/L after 1 hr by propidium iodide staining-based inverted fluorescence microscopic analysis; assay type: functional

Compound	Stability [1]	Activity (Plasmodium falciparum)	Activity (Plasmodium gallinaceum)
CC(C)C[C@@H](N)C(=O)N1CCC[C@@H]1C(=O)N[C@H](CO)C(=O)N[C@H](CCC(=O)O)C(=O)N[C@H](Cc1ccccc1)C(=O)N[C@H](CCCNC(=N)N)C(=O)N[C@@H](C(=O)N1CCC[C@@H]1C(=O)N[C@H](CC(C)C)C(=O)NCC(=O)N1CCC[C@@H]1C(=O)N[C@H](CCCNC(=N)N)C(N)=O)C(C)C	Stable	inactive	Active
CC(C)C[C@@H](NC(=O)[C@H]1CCCN1C(=O)[C@H](NC(=O)[C@@H](CCCNC(=N)N)NC(=O)[C@@H](CO)NC(=O)[C@@H](Cc1ccccc1)NC(=O)[C@@H](CO)NC(=O)[C@H]1CCCN1C(=O)[C@@H](CC(C)C)NC(=O)[C@H](N)CCCNC(=N)N)C(C)C)C(=O)NCC(=O)N1CCC[C@@H]1C(=O)N1CCC[C@@H]1C(=O)N[C@H](CCCNC(=N)N)C(N)=O	Stable	inactive	–
CC(C)C[C@H](NC(=O)[C@@H]1CCCN1C(=O)[C@H](CO)NC(=O)[C@H](CCC(=O)O)NC(=O)[C@H](Cc1ccccc1)NC(=O)[C@H](CCCNC(=N)N)NC(=O)[C@@H](NC(=O)[C@@H]1CCCN1C(=O)[C@H](CC(C)C)NC(=O)CNC(=O)[C@@H]1CCCN1C(=O)[C@@H](N)CCCNC(=N)N)C(C)C)C(N)=O (H-RPGLPVRFESPL-NH2)	–	inactive	inactive
CC(C)C[C@H](NC(=O)[C@@H]1CCCN1C(=O)[C@H](CO)NC(=O)[C@H](Cc1ccccc1)NC(=O)[C@H](CO)NC(=O)[C@H](CCCNC(=N)N)NC(=O)[C@@H](NC(=O)[C@@H]1CCCN1C(=O)[C@H](CC(C)C)NC(=O)CNC(=O)[C@@H]1CCCN1C(=O)[C@@H]1CCCN1C(=O)[C@@H](N)CCCNC(=N)N)C(C)C)C(=O)N[C@@H](CCCNC(=N)N)C(N)=O (H-RPPGLPVRSFSPLR-NH2)	–	inactive	Active
CC[C@H](C)[C@H](NC(=O)[C@H](Cc1ccc(O)cc1)NC(=O)[C@@H](NC(=O)[C@H](CCCNC(=N)N)NC(=O)[C@@H](N)CC(=O)O)C(C)C)C(=O)N[C@@H](Cc1cnc[nH]1)C(=O)N1CCC[C@H]1C(=O)N[C@@H](Cc1ccccc1)C(=O)O [ANGIOTENSIN II]	–	–	88%
N=C(N)NCCC[C@H](NC(=O)[C@H](Cc1ccccc1)NC(=O)[C@@H]1CCCN1C(=O)[C@H](CO)NC(=O)[C@H](Cc1ccccc1)NC(=O)CNC(=O)[C@@H]1CCCN1C(=O)[C@@H]1CCCN1C(=O)[C@@H](N)CCCNC(=N)N)C(=O)O [BRADYKININ] (H-RPPGFSPFR-OH)	–	inactive	98%
